{"source": "patent EP0755942B1", "about": "“N-AMIDINO […]” (DAIICHI PHARMACEUTICAL CO., LTD., priority 1994, dated 1995)", "key": {"Mice": {"test_system": "Mice", "experiment": "analgesic activity by pressure stimulation method (tail base)", "assay_type": "in vivo", "conditions": "dose that induced 50 percent of % of MPE; for ED50(mg/kg) s.c.: subcutaneous administration (skin in the backs); for ED50(mg/kg) p.o.: oral administration", "protocol": "The analgesic activities of the peptide derivatives of the present invention were evaluated by pressure stimulation method. Mice were subjected to pressure stimulation at the bases of their tails at the rate of 10 mmHg/second. […] For the experiments, mice that normally responded to a pressure of 40-50 mmHg were used. The maximum stimulating pressure was 100 mmHg. Analgesic activity was calculated as percent of maximum possible effect (% of MPE) according to the equation: % of MPE =(Pt - Po)/(Pc - Po)× 100 [formula] wherein Po is the pain reaction threshold before the administration of a drug; Pt is the pain reaction threshold \"t\" minutes after the administration of the drug; and Pc is the maximum stimulating pressure. ED50 values were calculated based on dose response curves as doses that induced 50 percent of % of MPE and analgesic activities of the drugs were compared."}, "[1]": {"conditions": "intraventricular administration, relative to morphine; cited from earlier work"}, "[2]": {"conditions": "cited from earlier work"}}, "data": [{"compound": "CN(CC(N)=O)C(=O)[C@H](Cc1ccccc1)NC(=O)[C@@H](CCCNC(=N)N)NC(=O)[C@H](Cc1ccc(O)cc1)NC(=N)N", "note": "[H2NC(NH)-Tyr-(D)Arg-Phe-N(CH3)CH2CONH2]", "values": [{"measurement": "ED50(mg/kg) s.c.", "setting": "Mice", "value": 0.27, "unit": "mg/kg"}]}, {"compound": "CN(C)C(=O)[C@H](Cc1ccccc1)NC(=O)[C@@H](CCCNC(=N)N)NC(=O)[C@H](Cc1ccc(O)cc1)NC(=N)N", "note": "[H2NC(NH)-Tyr-(D)Arg-Phe-N(Me)2]", "values": [{"measurement": "ED50(mg/kg) s.c.", "setting": "Mice", "value": 1.22, "unit": "mg/kg"}]}, {"compound": "CCN(CCC(=O)O)C(=O)[C@H](Cc1ccccc1)NC(=O)[C@@H](CCCNC(=N)N)NC(=O)[C@H](Cc1ccc(O)cc1)NC(=N)N", "note": "[H2NC(NH)-Tyr-D-Arg-Phe-N(CH2CH3)CH2CH2COOH]", "values": [{"measurement": "ED50(mg/kg) p.o.", "setting": "Mice", "value": 16.0, "unit": "mg/kg"}, {"measurement": "ED50(mg/kg) s.c.", "setting": "Mice", "value": 0.15, "unit": "mg/kg"}]}, {"compound": "COC(=O)CCN(C)C(=O)[C@H](Cc1ccccc1)NC(=O)[C@@H](CCCNC(=N)N)NC(=O)[C@H](Cc1ccc(O)cc1)NC(=N)N", "note": "[H2NC(NH)-Tyr-D-Arg-Phe-N(CH3)CH2CH2COOCH3]", "values": [{"measurement": "ED50(mg/kg) p.o.", "setting": "Mice", "value": 8.9, "unit": "mg/kg"}, {"measurement": "ED50(mg/kg) s.c.", "setting": "Mice", "value": 0.12, "unit": "mg/kg"}]}, {"compound": "CN(CCC(=O)O)C(=O)[C@H](Cc1ccccc1)NC(=O)[C@@H](CCCNC(=N)N)NC(=O)[C@H](Cc1ccc(O)cc1)NC(=N)N", "note": "[H2NC(NH)-Tyr-D-Arg-Phe-N(CH3)CH2CH2COOH]", "values": [{"measurement": "ED50(mg/kg) p.o.", "setting": "Mice", "value": 6.6, "unit": "mg/kg"}, {"measurement": "ED50(mg/kg) s.c.", "setting": "Mice", "value": 0.10, "unit": "mg/kg"}]}, {"compound": "CN(CC(=O)O)C(=O)[C@H](Cc1ccccc1)NC(=O)[C@@H](CCCNC(=N)N)NC(=O)[C@H](Cc1ccc(O)cc1)NC(=N)N", "note": "[H2NC(NH)-Tyr-D-Arg-Phe-N(CH3)CH2COOH]", "values": [{"measurement": "ED50(mg/kg) p.o.", "setting": "Mice", "value": 17.8, "unit": "mg/kg"}, {"measurement": "ED50(mg/kg) s.c.", "setting": "Mice", "value": 0.39, "unit": "mg/kg"}]}, {"compound": "N=C(N)NCCC[C@@H](NC(=O)[C@H](Cc1ccc(O)cc1)NC(=N)N)C(=O)N[C@@H](Cc1ccccc1)C(=O)NCCCO", "note": "[H2NC(NH)-Tyr-D-Arg-Phe-NHCH2CH2CH2OH]", "values": [{"measurement": "ED50(mg/kg) s.c.", "setting": "Mice", "value": 0.88, "unit": "mg/kg"}]}, {"compound": "N=C(N)NCCC[C@@H](NC(=O)[C@H](Cc1ccc(O)cc1)NC(=N)N)C(=O)N[C@@H](Cc1ccccc1)C(=O)NCCC(N)=O", "note": "[H2NC(NH)-Tyr-D-Arg-Phe-NHCH2CH2CONH2]", "values": [{"measurement": "ED50(mg/kg) p.o.", "setting": "Mice", "value": 10.7, "unit": "mg/kg"}, {"measurement": "ED50(mg/kg) s.c.", "setting": "Mice", "value": 0.13, "unit": "mg/kg"}]}, {"compound": "N=C(N)NCCC[C@@H](NC(=O)[C@H](Cc1ccc(O)cc1)NC(=N)N)C(=O)N[C@@H](Cc1ccccc1)C(=O)NCCC(=O)O", "note": "[H2NC(NH)-Tyr-D-Arg-Phe-NHCH2CH2COOH]", "values": [{"measurement": "ED50(mg/kg) p.o.", "setting": "Mice", "value": 5.8, "unit": "mg/kg"}, {"measurement": "ED50(mg/kg) s.c.", "setting": "Mice", "value": 0.14, "unit": "mg/kg"}]}, {"compound": "Dermorphine", "values": [{"measurement": "analgesic effect higher than morphine", "setting": "[1]", "value": "about 1,000 fold"}]}, {"compound": "Tyr-D-Arg^2-Phe-Sarcosine [TAPS]", "values": [{"measurement": "potency relative to dermorphin", "setting": "[2]; opioid effects such as analgesia, relative to dermorphin", "value": "about 6 times"}, {"measurement": "duration of sufficient analgesic effects", "setting": "[2]; oral administration", "value": 3, "unit": "h"}]}]}
